Results on 17 molecules are retold here after patent US20230365537A1, “POLO LIKE KINASE 4 INHIBITORS” (ORIC Pharmaceuticals, Inc., priority 2021, published 2023).

In assay [1] the test system is CHP-134 cells. Description: CHP134 CellTiter-Glo (CTG) Assay. Format: cell-based. The note with it: Homo sapiens, CHP-134, 120 h, 5 days, viable cells by CellTiter-Glo. The method in brief: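 Nine-point 1:3 dilution series, diluted into growth media, added in quadruplicate to CHP-134 cells plated 16 h earlier at 200 cells/well.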
Assay [2] concerns the target human recombinant Aurora B (Homo sapiens (Human), UniProt Q96GD4). Nature of the assay: Aurora B Kinase Biochemical Assay (ADP-Glo). The note with it: ratio of Aurora B IC50 to PLK4 IC50 (selectivity). A digest of the protocol:
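IC50 derived by four-parameter nonlinear fit of ADP-Glo luminescence (ADP produced). Compound was preincubated 15 min at RT with 20 nM recombinant human Aurora B, in 50 mM HEPES pH 7.5, 10 mM MgCl2, 1 mM EGTA, 1 mM DTT, 0.01% Brij-35/BSA.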

Assay [3] has as its target human recombinant Aurora A (Homo sapiens (Human), UniProt O14965). Nature of the assay: Aurora A Kinase Biochemical Assay (ADP-Glo). As to conditions: ratio of Aurora A IC50 to PLK4 IC50 (selectivity).
The target of assay [4] is human recombinant PLK4 (Homo sapiens (Human), UniProt O00444). Nature of the assay: PLK4 Biochemical Assay (ADP-Glo). The note with it: 0.5 nM PLK4, 8.0 µM ATP, 4.7 µM MBP, 6 hours at RT. The method in brief:
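Luminescent ADP-Glo detection quantified ADP production, with ATP depletion for 40 min and detection for 30 min at room temperature. Compound and PLK4 (1.0 nM stock addition) were preincubated 15 min in HEPES pH 7.5 buffer containing MgCl2, EGTA, DTT, Brij-35 and BSA. IC50 values were obtained by four-parameter nonlinear regression.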

Sequence of human recombinant Aurora B (Q96GD4 whole entry): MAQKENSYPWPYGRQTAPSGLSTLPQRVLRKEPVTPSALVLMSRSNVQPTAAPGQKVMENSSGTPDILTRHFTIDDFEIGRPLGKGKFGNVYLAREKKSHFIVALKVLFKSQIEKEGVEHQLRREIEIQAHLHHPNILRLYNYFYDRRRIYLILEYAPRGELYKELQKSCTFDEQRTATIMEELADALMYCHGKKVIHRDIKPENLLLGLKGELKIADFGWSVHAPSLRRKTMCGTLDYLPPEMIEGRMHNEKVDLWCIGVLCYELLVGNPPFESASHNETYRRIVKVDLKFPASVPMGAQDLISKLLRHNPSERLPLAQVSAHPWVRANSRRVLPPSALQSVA
Sequence of human recombinant PLK4 (O00444 whole entry): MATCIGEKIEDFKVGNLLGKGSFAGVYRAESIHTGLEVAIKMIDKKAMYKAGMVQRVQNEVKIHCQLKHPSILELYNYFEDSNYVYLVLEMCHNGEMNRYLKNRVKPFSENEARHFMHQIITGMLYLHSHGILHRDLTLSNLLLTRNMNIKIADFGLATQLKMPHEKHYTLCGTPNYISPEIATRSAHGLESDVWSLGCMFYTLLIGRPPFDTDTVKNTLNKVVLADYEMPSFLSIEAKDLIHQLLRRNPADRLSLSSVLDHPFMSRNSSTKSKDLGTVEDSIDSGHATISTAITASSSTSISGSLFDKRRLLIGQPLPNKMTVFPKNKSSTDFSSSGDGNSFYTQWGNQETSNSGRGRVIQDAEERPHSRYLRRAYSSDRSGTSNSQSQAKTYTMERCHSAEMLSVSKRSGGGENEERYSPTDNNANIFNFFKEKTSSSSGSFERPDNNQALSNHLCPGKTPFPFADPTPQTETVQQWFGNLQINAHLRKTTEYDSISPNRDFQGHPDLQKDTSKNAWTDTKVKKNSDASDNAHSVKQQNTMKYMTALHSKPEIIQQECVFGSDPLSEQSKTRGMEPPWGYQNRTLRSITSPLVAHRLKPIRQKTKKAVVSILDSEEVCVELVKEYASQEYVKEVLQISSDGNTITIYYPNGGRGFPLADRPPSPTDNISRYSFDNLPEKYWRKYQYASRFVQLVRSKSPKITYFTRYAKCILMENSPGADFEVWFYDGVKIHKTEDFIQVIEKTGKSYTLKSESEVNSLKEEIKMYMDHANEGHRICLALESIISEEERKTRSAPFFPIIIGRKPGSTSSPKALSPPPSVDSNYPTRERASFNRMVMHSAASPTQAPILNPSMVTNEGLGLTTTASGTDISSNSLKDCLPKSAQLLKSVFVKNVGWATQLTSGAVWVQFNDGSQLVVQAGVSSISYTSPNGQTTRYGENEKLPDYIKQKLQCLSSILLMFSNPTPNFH
Sequence of human recombinant Aurora A (O14965 whole entry): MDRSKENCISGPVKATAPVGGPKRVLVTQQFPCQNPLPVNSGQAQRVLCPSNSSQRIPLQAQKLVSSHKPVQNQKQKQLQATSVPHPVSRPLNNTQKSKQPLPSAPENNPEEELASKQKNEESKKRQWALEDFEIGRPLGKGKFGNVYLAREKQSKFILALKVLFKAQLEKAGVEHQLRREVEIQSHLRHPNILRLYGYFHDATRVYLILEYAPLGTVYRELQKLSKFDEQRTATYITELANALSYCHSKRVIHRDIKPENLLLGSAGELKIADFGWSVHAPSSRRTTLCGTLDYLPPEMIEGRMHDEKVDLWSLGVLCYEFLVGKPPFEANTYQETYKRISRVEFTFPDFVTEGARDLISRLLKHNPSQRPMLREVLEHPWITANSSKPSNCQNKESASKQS

With `COc1cnc(C)nc1Nc1n[nH]c2cc([C@@H]3C[C@@]34C(=O)Nc3ccc(C)cc34)ccc12` [Example 126, (1R,2S)-2-{3-[(5-methoxy-2-methylpyrimidin-4-yl)amino]-1H-indazol-6-yl}-5′-methylspiro[cyclopropane-1,3′-indol]-2′(1′H)-one], the IC50 in assay [1] was 0.459 µM; in assay [4], 0.00901 µM. Also, the “[Aurora B IC50 (nM)]/[PLK4 IC50 (nM)]” value in assay [2] was 92.0568. For the same molecule, the “[Aurora A IC50 (nM)]/[PLK4 IC50 (nM)]” value in assay [3] was found to be 66.2192.

Turning to `COc1ccc2c(c1)[C@]1(C[C@H]1c1ccc3c(Nc4nc(C(C)C)ncc4OC(F)F)n[nH]c3c1)C(=O)N2` [Example 128, (1R,2S)-2-(3-{[5-(difluoromethoxy)-2-(propan-2-yl)pyrimidin-4-yl]amino}-1H-indazol-6-yl)-5′-methoxyspiro[cyclopropane-1,3′-indol]-2′(1′H)-one], the results for the IC50 in assay [1] and in assay [4] were 1.49 µM and 0.00289 µM, respectively. In assay [2], the “[Aurora B IC50 (nM)]/[PLK4 IC50 (nM)]” value was determined as 1337.0280. Further, the “[Aurora A IC50 (nM)]/[PLK4 IC50 (nM)]” value in assay [3] amounted to 2750.2597.

Consider `COc1ccc2c(c1)[C@]1(C[C@H]1c1ccc3c(Nc4ncnc(N5CC6(COC6)C5)c4Cl)n[nH]c3c1)C(=O)N2` [Example 132, (1R,2S)-2-(3-{[5-chloro-6-(2-oxa-6-azaspiro[3.3]heptan-6-yl)pyrimidin-4-yl]amino}-1H-indazol-6-yl)-5′-methoxyspiro[cyclopropane-1,3′-indol]-2′(1′H)-one], for which the IC50 worked out at 0.618 µM in assay [1] and 0.00215 µM in assay [4]. Also, the “[Aurora B IC50 (nM)]/[PLK4 IC50 (nM)]” value in assay [2] is on record as 249.5114. Moreover, in assay [3], the “[Aurora A IC50 (nM)]/[PLK4 IC50 (nM)]” value is recorded as 5290.8329.

Turning to `COc1cnc(C)nc1Nc1n[nH]c2cc([C@@H]3C[C@@]34C(=O)Nc3ccc(F)cc34)ccc12` [Example 133, (1R,2S)-5′-fluoro-2-{3-[(5-methoxy-2-methylpyrimidin-4-yl)amino]-1H-indazol-6-yl}spiro[cyclopropane-1,3′-indol]-2′(1′H)-one], the results for the half-inhibitory concentration (IC50) in assay [1] and in assay [4] were 0.193 µM and 0.00832 µM, respectively. Moreover, the “[Aurora B IC50 (nM)]/[PLK4 IC50 (nM)]” value in assay [2] is 45.1453. Further, the “[Aurora A IC50 (nM)]/[PLK4 IC50 (nM)]” value in assay [3] worked out at 43.3910.

With `CCOc1cnc(C)nc1Nc1n[nH]c2cc([C@@H]3C[C@@]34C(=O)Nc3ccc(OC)cc34)ccc12` [Example 134, (1R,2S)-2-{3-[(5-ethoxy-2-methylpyrimidin-4-yl)amino]-1-indazol-6-yl}-5′-methoxyspiro[cyclopropane-1,3′-indol]-2′(1′H)-one], the half-inhibitory concentration (IC50) worked out at 0.782 µM in assay [1] and 0.00179 µM in assay [4]. In assay [2], the “[Aurora B IC50 (nM)]/[PLK4 IC50 (nM)]” value was determined as 969.2737. Also, the “[Aurora A IC50 (nM)]/[PLK4 IC50 (nM)]” value in assay [3] was determined as 8849.1620.

Regarding `COc1ccc2c(c1)[C@]1(C[C@H]1c1ccc3c(Nc4nc(C)ncc4C4CC4)n[nH]c3c1)C(=O)N2` [Example 140, (1R,2S)-2-{3-[(5-cyclopropyl-2-methylpyrimidin-4-yl)amino]-1H-indazol-6-yl}-5′-methoxyspiro[cyclopropane-1,3′-indol]-2′(1′H)-one], the 50% inhibitory concentration (IC50) was determined as 7.76 µM in assay [1] and 0.0166 µM in assay [4]. Besides, the “[Aurora B IC50 (nM)]/[PLK4 IC50 (nM)]” value in assay [2] was found to be 537. In addition, the “[Aurora A IC50 (nM)]/[PLK4 IC50 (nM)]” value in assay [3] was 814.

In the case of `COc1ccc2c(c1)[C@]1(C[C@H]1c1cc3[nH]nc(Nc4nc(C)ncc4OC)c3cc1F)C(=O)N2` [Example 144, (1R,2R)-2-{5-fluoro-3-[(5-methoxy-2-methylpyrimidin-4-yl)amino]-1H-indazol-6-yl}-5′-methoxyspiro[cyclopropane-1,3′-indol]-2′(1′H)-one], the IC50 was 0.75 µM in assay [1] and 0.00141 µM in assay [4]. Besides, the “[Aurora B IC50 (nM)]/[PLK4 IC50 (nM)]” value in assay [2] came to 61.4367. In assay [3], the “[Aurora A IC50 (nM)]/[PLK4 IC50 (nM)]” value was 852.7955.

Take `COc1ccc2c(c1)[C@]1(C[C@H]1c1ccc3c(Nc4cc(C)nnc4OC)n[nH]c3c1)C(=O)N2` [Example 145, (1R,2S)-5′-methoxy-2-{3-[(3-methoxy-6-methylpyridazin-4-yl)amino]-1H-indazol-6-yl}spiro[cyclopropane-1,3′-indol]-2′(1′H)-one]: the IC50 in assay [1] came to 2.92 µM; in assay [4] it was 0.00582 µM. Also, the “[Aurora B IC50 (nM)]/[PLK4 IC50 (nM)]” value in assay [2] came out at 280.8043. In addition, the “[Aurora A IC50 (nM)]/[PLK4 IC50 (nM)]” value in assay [3] is recorded as 1001.5467.

For the molecule `COc1ccc2c(c1)[C@]1(C[C@H]1c1ccc3c(Nc4nc(C)ncc4OCC4CC4)n[nH]c3c1)C(=O)N2` [Example 146, (1R,2S)-2-(3-{[5-(cyclopropylmethoxy)-2-methylpyrimidin-4-yl]amino}-1H-indazol-6-yl)-5′-methoxyspiro[cyclopropane-1,3′-indol]-2′(1′H)-one], the results for the IC50 in assay [1] and in assay [4] were 0.655 µM and 0.00149 µM, respectively. For the same molecule, the “[Aurora B IC50 (nM)]/[PLK4 IC50 (nM)]” value in assay [2] came to 745.8082. Besides, the “[Aurora A IC50 (nM)]/[PLK4 IC50 (nM)]” value in assay [3] is 3512.4078.

On to `COc1ccc2c(c1)[C@]1(C[C@H]1c1ccc3c(Nc4nc(C)ncc4OCC(F)F)n[nH]c3c1)C(=O)N2` [Example 147, (1R,2S)-2-(3-{[5-(2,2-difluoroethoxy)-2-methylpyrimidin-4-yl]amino}-1H-indazol-6-yl)-5′-methoxyspiro[cyclopropane-1,3′-indol]-2′(1′H)-one], for which the IC50 in assay [1] worked out at 1.3 µM; in assay [4] it was 0.00422 µM. Further, the “[Aurora B IC50 (nM)]/[PLK4 IC50 (nM)]” value in assay [2] came out at 483.0689. In addition, the “[Aurora A IC50 (nM)]/[PLK4 IC50 (nM)]” value in assay [3] is reported as 2292.2093.

On to `COc1ccc2c(c1)[C@]1(C[C@H]1c1ccc3c(Nc4cc(C)ccc4OC)n[nH]c3c1)C(=O)N2` [Example 148, (1R,2S)-5′-methoxy-2-[3-(2-methoxy-5-methylanilino)-1H-indazol-6-yl]spiro[cyclopropane-1,3′-indol]-2′(1′H)-one], for which the IC50 in assay [1] worked out at 3.57 µM; in assay [4], 0.00687 µM. Besides, the “[Aurora B IC50 (nM)]/[PLK4 IC50 (nM)]” value in assay [2] is 338.8646. The “[Aurora A IC50 (nM)]/[PLK4 IC50 (nM)]” value in assay [3] is 397.3799.

For `COc1ccc2c(c1)[C@]1(C[C@H]1c1ccc3c(Nc4nc(C)ncc4OCC(F)(F)F)n[nH]c3c1)C(=O)N2` [Example 149, (1R,2S)-5′-methoxy-2-(3-{[2-methyl-5-(2,2,2-trifluoroethoxy)pyrimidin-4-yl]amino}-1H-indazol-6-yl)spiro[cyclopropane-1,3′-indol]-2′(1′H)-one], the values for the IC50 in assay [1] and in assay [4] were 0.844 µM and 0.00315 µM, respectively. Further, the “[Aurora B IC50 (nM)]/[PLK4 IC50 (nM)]” value in assay [2] was 879.4799. The “[Aurora A IC50 (nM)]/[PLK4 IC50 (nM)]” value in assay [3] is on record as 3193.7837.

For the molecule `COc1ccc2c(c1)[C@]1(C[C@H]1c1ccc3c(Nc4ccc(C)nc4OC)n[nH]c3c1)C(=O)N2` [Example 150, (1R,2S)-5′-methoxy-2-{3-[(2-methoxy-6-methylpyridin-3-yl)amino]-1H-indazol-6-yl}spiro[cyclopropane-1,3′-indol]-2′(1′H)-one], the 50% inhibitory concentration (IC50) was found to be 3.16 µM in assay [1] and 0.00813 µM in assay [4]. Further, the “[Aurora B IC50 (nM)]/[PLK4 IC50 (nM)]” value in assay [2] is given as 366.7569. In assay [3], the “[Aurora A IC50 (nM)]/[PLK4 IC50 (nM)]” value amounted to 720.7185.

Turning to `COc1ccc2c(c1)[C@]1(C[C@H]1c1ccc3c(Nc4nc(C)nc5c4OCC5)n[nH]c3c1)C(=O)N2` [Example 153, (1R,2S)-5′-methoxy-2-{3-[(2-methyl-6,7-dihydrofuro[3,2-d]pyrimidin-4-yl)amino]-1H-indazol-6-yl}spiro[cyclopropane-1,3′-indol]-2′(1′H)-one], the half-inhibitory concentration (IC50) in assay [1] came out at 0.876 µM; in assay [4] it was 0.00191 µM. Besides, the “[Aurora B IC50 (nM)]/[PLK4 IC50 (nM)]” value in assay [2] is on record as 123.6097. In assay [3], the “[Aurora A IC50 (nM)]/[PLK4 IC50 (nM)]” value came out at 1254.4596.

`COc1ccc2c(c1)[C@]1(C[C@H]1c1ccc3c(Nc4nc(C5CCOCC5)ncc4OC)n[nH]c3c1)C(=O)N2` [Example 154, (1R,2S)-5′-methoxy-2-(3-{[5-methoxy-2-(oxan-4-yl)pyrimidin-4-yl]amino}-1H-indazol-6-yl)spiro[cyclopropane-1,3′-indol]-2′(1′H)-one]: the figures for the IC50 in assay [1] and in assay [4] were 0.26 µM and 0.000976 µM, respectively. Besides, the “[Aurora B IC50 (nM)]/[PLK4 IC50 (nM)]” value in assay [2] amounted to 655.2254. The “[Aurora A IC50 (nM)]/[PLK4 IC50 (nM)]” value in assay [3] worked out at 1373.9754.

As to `COc1ccc2c(c1)[C@]1(C[C@H]1c1ccc3c(Nc4nc(SC)ncc4OC)n[nH]c3c1)C(=O)N2` [Example 155, (1R,2S)-5′-methoxy-2-(3-{[5-methoxy-2-(methylsulfanyl)pyrimidin-4-yl]amino}-1H-indazol-6-yl)spiro[cyclopropane-1,3′-indol]-2′(1′H)-one], the 50% inhibitory concentration (IC50) in assay [1] is 0.192 µM; in assay [4], 0.00103 µM. Moreover, in assay [2], the “[Aurora B IC50 (nM)]/[PLK4 IC50 (nM)]” value is on record as 68.0773. For the same molecule, the “[Aurora A IC50 (nM)]/[PLK4 IC50 (nM)]” value in assay [3] turned out to be 305.4106.

On to `COc1ccc2c(c1)[C@]1(C[C@H]1c1ccc3c(Nc4nc(N5CCC5)ncc4OC)n[nH]c3c1)C(=O)N2` [Example 157, (1R,2S)-2-(3-{[2-(azetidin-1-yl)-5-methoxypyrimidin-4-yl]amino}-1H-indazol-6-yl)-5′-methoxyspiro[cyclopropane-1,3′-indol]-2′(1′H)-one], for which the results for the concentration for half-maximal inhibition (IC50) in assay [1] and in assay [4] were 0.288 µM and 0.00195 µM, respectively. In assay [2], the “[Aurora B IC50 (nM)]/[PLK4 IC50 (nM)]” value is 303.9548. Moreover, in assay [3], the “[Aurora A IC50 (nM)]/[PLK4 IC50 (nM)]” value came out at 510.6317.
